Values of other authors, collected in PubChem BioAssay AID1259409 (Chemical Carcinogenesis Research Information System (CCRIS), 2018).
Where “and” joins values, the source holds several entries; their conditions need not be identical. Equal values may be shown once.

Tested on: rodent chemically induced tumor inhibition, incidence and multiplicity
Test: CCRIS tumor inhibitor studies
Settings: Route [Inhibitor]: ORAL; for tumour outcome (control, treated, inhibition, significance): Promoter: NONE USED; for outcome: Carcinogen: NONE, Strain/Sex: APC/MIN/MALE, Promoter: NONE

In the case of `CN1C(C(=O)Nc2ccccn2)=C(O)c2ccccc2S1(=O)=O`, the “tumour outcome (control, treated, inhibition, significance)” value (Carcinogen: N-BUTYL-N-(4-HYDROXYBUTYL)NITROSAMINE, 3817-11-6, Dose [Inhibitor]: 0, 0.0075% IN DIET FOR 12 WK BEGINNING POST CARCINOGEN TREATMENT (STUDY DURATION: 20 WK), Species: RAT, Strain/Sex: F344/MALE, Target Tissue: Type of Lesion: URINARY BLADDER: TRANSITIONAL CELL CARCINOMA, Dose [Carcinogen]: 0.05% IN DRINKING WATER FOR 8 WK) is listed as 10/12 (83%), 4/12 (33%), 60%, p<0.05, the “tumour outcome (control, treated, inhibition, significance)” value (Carcinogen: N-BUTYL-N-(4-HYDROXYBUTYL)NITROSAMINE, 3817-11-6, Dose [Inhibitor]: 0, 15 MG/KG DIET BEGINNING 1 WK PRIOR TO CARCINOGEN TREATMENT AND CONTINUING FOR DURATION OF STUDY (STUDY DURATION: 180, Species: MOUSE, Strain/Sex: BDF/MALE, Target Tissue: Type of Lesion: BLADDER: CARCINOMA, Dose [Carcinogen]: 7.5 MG IN 0.1 ML OF ETHANOL:WATER (20:80) 1/WK FOR 8 WK) is listed as 25/63 (40%), 5/69 (7%), 83%, p<0.0001 and the “tumour outcome (control, treated, inhibition, significance)” value (Carcinogen: N-BUTYL-N-(4-HYDROXYBUTYL)NITROSAMINE, 3817-11-6, Dose [Inhibitor]: 0, 30 MG/KG DIET BEGINNING 1 WK PRIOR TO CARCINOGEN TREATMENT AND CONTINUING FOR DURATION OF STUDY (STUDY DURATION: 180, Species: MOUSE, Strain/Sex: BDF/MALE, Target Tissue: Type of Lesion: BLADDER: CARCINOMA, Dose [Carcinogen]: 7.5 MG IN 0.1 ML OF ETHANOL:WATER (20:80) 1/WK FOR 8 WK) is listed as 28/65 (43%), 7/56 (13%), 70%, p<0.001. For the same molecule, the “tumour outcome (control, treated, inhibition, significance)” value (Carcinogen: N-BUTYL-N-(4-HYDROXYBUTYL)NITROSAMINE, 3817-11-6, Dose [Inhibitor]: 0, 75 PPM IN DIET FOR 12 WK BEGINNING POST CARCINOGEN TREATMENT (STUDY DURATION: 20 WK), Species: RAT, Strain/Sex: F344/MALE, Target Tissue: Type of Lesion: URINARY BLADDER: TRANSITIONAL CELL CARCINOMA, Dose [Carcinogen]: 0.05% IN DRINKING WATER FOR 8 WK) was 18/20 (90%), 3/19 (16%), 82%, p<0.0001, the “tumour outcome (control, treated, inhibition, significance)” value (Carcinogen: N-METHYL-N-NITROSOUREA, 684-93-5, Dose [Inhibitor]: 130 MG/KG DIET DAILY STARTING 7 D AFTER LAST CARCINOGEN TREATMENT AND CONTINUING FOR 19 WK (STUDY DURATION: 21 WK), Species: RAT, Strain/Sex: SPRAGUE-DAWLEY/MALE, Target Tissue: Type of Lesion: INTESTINES: TUMOR, Dose [Carcinogen]: 0.8% IN 0.5 ML WATER 3 TIMES AT 2 D INTERVALS) was 9/9 (100%), 5/10 (50%), 50%, not calculated and 9/9 (100%), 3/9 (33%), 67%, not calculated and the “tumour outcome (control, treated, inhibition, significance)” value (Carcinogen: N-METHYLNITROSOUREA, 684-93-5, Dose [Inhibitor]: 0, 130 MG/KG VEGETABLE DIET (2.5 MG/D) BEGINNING 7 D POST LAST CARCINOGEN TREATMENT AND CONTINUING FOR STUDY DURATION (S, Species: RAT, Strain/Sex: CD-1/MALE, Target Tissue: Type of Lesion: INTESTINE: TUMOR, Dose [Carcinogen]: 0.5 ML OF 0.8% WATER SOLUTION 1/2 D FOR 6 D) was 9/9 (100%), 3/9 (33%), 67%, not calculated. For the same molecule, the outcome (Dose [Inhibitor]: 12 PPM IN DIET FOR 2 MONTHS (STUDY DURATION: 2 MONTHS), Species: MOUSE, Target Tissue: Type of Lesion: DISTAL SMALL INTESTINE: TUMOR) was 10.38, 5.47, 47%, p<0.01, the outcome (Dose [Inhibitor]: 12 PPM IN DIET FOR 2 MONTHS (STUDY DURATION: 2 MONTHS), Species: MOUSE, Target Tissue: Type of Lesion: MIDDLE SMALL INTESTINE: TUMOR) was 23.75, 16.20, 32%, not significant and the outcome (Dose [Inhibitor]: 12 PPM IN DIET FOR 2 MONTHS (STUDY DURATION: 2 MONTHS), Species: MOUSE, Target Tissue: Type of Lesion: PROXIMAL SMALL INTESTINE: TUMOR) was 7.63, 14.80, -94%, p<0.01. The outcome (Dose [Inhibitor]: 25 PPM IN DIET FOR 2 MONTHS (STUDY DURATION: 2 MONTHS), Species: MOUSE, Target Tissue: Type of Lesion: DISTAL SMALL INTESTINE: TUMOR) was 10.38, 2.50, 76%, p<0.001, the outcome (Dose [Inhibitor]: 25 PPM IN DIET FOR 2 MONTHS (STUDY DURATION: 2 MONTHS), Species: MOUSE, Target Tissue: Type of Lesion: MIDDLE SMALL INTESTINE: TUMOR) was 23.75, 10.93, 38%, p<0.001 and the outcome (Dose [Inhibitor]: 50 PPM IN DIET FOR 2 MONTHS (STUDY DURATION: 2 MONTHS), Species: MOUSE, Target Tissue: Type of Lesion: DISTAL SMALL INTESTINE: TUMOR) was 10.38, 2.60, 75%, p<0.001. The outcome (Dose [Inhibitor]: 50 PPM IN DIET FOR 2 MONTHS (STUDY DURATION: 2 MONTHS), Species: MOUSE, Target Tissue: Type of Lesion: MIDDLE SMALL INTESTINE: TUMOR) was 23.75, 14.73, 38%, p<0.05, the outcome (Dose [Inhibitor]: 100 PPM IN DIET FOR 2 MONTHS (STUDY DURATION: 2 MONTHS), Species: MOUSE, Target Tissue: Type of Lesion: DISTAL SMALL INTESTINE: TUMOR) was 10.38, 1.60, 85%, p<0.001 and the outcome (Dose [Inhibitor]: 100 PPM IN DIET FOR 2 MONTHS (STUDY DURATION: 2 MONTHS), Species: MOUSE, Target Tissue: Type of Lesion: MIDDLE SMALL INTESTINE: TUMOR) was 23.75, 10.40, 56%, p<0.001.
